Data published in patent US20240415804A1, “METHOD OF TREATING PANCREATIC CANCER” (University of South Florida, priority 2022, published 2024).

Assays:
[1] = test system: orthotopic (O) mouse model of PC (OPC); conditions: earlier report (ref 12), cited from earlier work
miR-155 [2] = assay: miR-155 gene expression in tumors of KC-HPC mice; type: in vivo, mouse; conditions: API 25 mg/kg IP three times per week for 17 days, vs vehicle
Protocol: To build on these findings, the inventors then used a novel pancreatic cancer cell line, UN-KC-6141, that resembles human PC due to its expression of a mutated Kras and generated mice harboring these tumor cells, called KC-HPC mice. Such mice were treated with API at a dose of 25 mg/kg (IP) three times per week for 17 days. The inventors examined if API also targets miR-155 and regulates SHIP-1 in the tumors from KC-HPC mouse model. […] The HPC models were euthanized 21-28 days post-injection, while the KC-HPC models were euthanized 16-17 days post-injection. miRNA extraction of PC cells (treated with miR-155 inhibitor and/or API), BM and digested pancreatic tumors cells was performed using a mirVana miRNA Isolation Kit (Applied Biosystems, Waltham, MA, USA) as per the manufacturer's instructions. miRNA was reverse transcribed into cDNA using TaqMan miRNA reverse transcription kit (Applied Biosystems) with gene-specific stem-loop RT primers according to the manufacturer's instructions. cDNA was then loaded onto either mmu-miR-155 or ipu-miR-155 TaqMan miRNA assays (Assay IDs: 002571 and 467534_mat) using TaqMan Fast Universal PCR Master mix (Applied Biosystems) and miR-155 detected with an Eppendorf Master cycler real plex 4. […]

miR-155 [3] = assay: miR-155 gene expression by RT-qPCR in MiaPaCa-2 cells; type: cell-based, human; conditions: API 40 μM, 24 h, vs DMSO vehicle
Protocol: MiR-155 is known to be overexpressed in different cancers, including PC^21, 23. The inventors first assessed whether apigenin could modulate the expression of miR-155 in PC cells. Murine PC cell lines Panc02 and UN-KC-6141 as well as the human PC cell line MiaPaCa-2 were treated with API (40 μM) or DMSO vehicle for 24 h and the expression of miR-155 was examined using RT-qPCR assay. […] Since API is known to inhibit the growth of cancer cells, including PC cells^39-43, 47-50, the same PC cell lines were treated with API (40 μM) or DMSO (vehicle) for 24 h and examined cell viability using MTT assay. […] Moreover, Panc02 and UN-KC-6141 cells were then treated with API at a dose dependent concentration (10, 20, 30, 40, 50 μM) and detected apoptosis using flow cytometry (Annexin V and PI).
miR-155 is implicated in the development of pancreatic tumors from pancreatic intraepithelial neoplasia (PanIN) lesions, and is overexpressed in PC^23. The inventors examined whether the depletion of miR-155 modulated PC viability. Murine and human PC cell lines were transfected with miR-155 inhibitor (i.e., MMU-MIR-155-5P/HSA-MIR-155-5P) and scrambled miRNA at a concentration of 100 nM for 24 h and cell viability determined using an MTT assay. The expression of miR-155 was examined using an RT-qPCR assay as well. […]

O=c1cc(-c2ccc(O)cc2)oc2cc(O)cc(O)c12 [API, 40,5,7-Trihydroxyflavone, 5,7-Dihydroxy-2-(4-hydroxyphenyl)-4-benzopyrone]
necrosis of pancreatic tumor cells (H&E staining) ([1]; API treatment of OPC mice): induced necrosis
tumor growth ([1]; OPC mouse model): reduced
miR-155 gene expression in tumor (miR-155 [2]): significantly reduced
miR-155 gene expression (miR-155 [3]): significantly suppressed
